Experiments:
Experiment in all cases: MIC, broth microdilution (CLSI), substance alone or ATB combined with compound at 4 or 8 μg/mL
Type in all cases: cell-based, A. baumannii
ABA 107292 = tested on: ABA 107292
Outline: (§1)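 Growth inhibition endpoint, read visually after 16-20 h at 35° C in ambient air. Cation-adjusted Mueller-Hinton broth, inoculum 5·10^5 CFU/mL, CLSI M7-A7 protocol.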

ABA 19606 = tested on: ABA 19606
Outline: as §1

ABA UFR151 = tested on: ABA UFR151
Outline: as §1

ABA UFR152 = tested on: ABA UFR152
Outline: as §1

ABA UFR153 = tested on: ABA UFR153
Outline: as §1

ABA UFR156 = tested on: ABA UFR156
Outline: as §1

ABA UFR157 = tested on: ABA UFR157
Outline: as §1

ABA UFR158 = tested on: ABA UFR158
Outline: as §1

ABA UFR159 = tested on: ABA UFR159
Outline: as §1

ABA UFR160 = tested on: ABA UFR160
Outline: as §1

ABA UFR161 = tested on: ABA UFR161
Outline: as §1

[1] = Acinetobacter baumannii, antibiotic alone, read-out: MIC ATB alone

CO/N=C(\C(=O)N[C@@H]1C(=O)N2C(C(=O)[O-])=C(C[N+]3(C)CCCC3)CS[C@H]12)c1csc(N)n1 [FEP, Cefepime]
MIC (ABA 107292; [1]): 64 µg/mL
MIC ATB combined with Example 1 @8 μg/ml (ABA 107292; with Example 1 @8 μg/ml): 64 µg/mL
MIC ATB combined with Example 3 @8 μg/ml (ABA 107292; with Example 3 @8 μg/ml): 8 µg/mL
MIC ATB combined with Example 6 @8 μg/ml (ABA 107292; with Example 6 @8 μg/ml): 16 µg/mL
MIC ATB combined with Example 9 @4 μg/ml (ABA 107292; with Example 9 @4 μg/ml): 16 µg/mL
MIC ATB combined with Example 10 @8 μg/ml (ABA 107292; with Example 10 @8 μg/ml): 16 µg/mL
MIC ATB combined with Example 11 @8 μg/ml (ABA 107292; with Example 11 @8 μg/ml): 32 µg/mL
MIC ATB combined with Example 12 @8 μg/ml (ABA 107292; with Example 12 @8 μg/ml): 8 µg/mL
MIC ATB combined with Example 15 @4 μg/ml (ABA 107292; with Example 15 @4 μg/ml): 32 µg/mL
MIC (ABA 19606; [1]): 16 µg/mL
MIC ATB combined with Example 1 @8 μg/ml (ABA 19606; with Example 1 @8 μg/ml): 32 µg/mL
MIC ATB combined with Example 3 @8 μg/ml (ABA 19606; with Example 3 @8 μg/ml): 8 µg/mL
MIC ATB combined with Example 6 @8 μg/ml (ABA 19606; with Example 6 @8 μg/ml): <=0.25 μg/mL
MIC ATB combined with Example 9 @4 μg/ml (ABA 19606; with Example 9 @4 μg/ml): 16 µg/mL
MIC ATB combined with Example 10 @8 μg/ml (ABA 19606; with Example 10 @8 μg/ml): 8 µg/mL
MIC ATB combined with Example 11 @8 μg/ml (ABA 19606; with Example 11 @8 μg/ml): 16 µg/mL
MIC ATB combined with Example 12 @8 μg/ml (ABA 19606; with Example 12 @8 μg/ml): 8 µg/mL
MIC ATB combined with Example 15 @4 μg/ml (ABA 19606; with Example 15 @4 μg/ml): 16 µg/mL
MIC (ABA UFR151; [1]): 2 µg/mL
MIC ATB combined with Example 1 @8 μg/ml (ABA UFR151; with Example 1 @8 μg/ml): 2 µg/mL
MIC ATB combined with Example 3 @8 μg/ml (ABA UFR151; with Example 3 @8 μg/ml): 1 µg/mL
MIC ATB combined with Example 6 @8 μg/ml (ABA UFR151; with Example 6 @8 μg/ml): <0.25 µg/mL
MIC ATB combined with Example 9 @4 μg/ml (ABA UFR151; with Example 9 @4 μg/ml): 2 µg/mL
MIC ATB combined with Example 10 @8 μg/ml (ABA UFR151; with Example 10 @8 μg/ml): 2 µg/mL
MIC ATB combined with Example 11 @8 μg/ml (ABA UFR151; with Example 11 @8 μg/ml): 2 µg/mL
MIC ATB combined with Example 12 @8 μg/ml (ABA UFR151; with Example 12 @8 μg/ml): 2 µg/mL
MIC ATB combined with Example 15 @4 μg/ml (ABA UFR151; with Example 15 @4 μg/ml): 2 µg/mL
MIC (ABA UFR152; [1]): 16 µg/mL
MIC ATB combined with Example 1 @8 μg/ml (ABA UFR152; with Example 1 @8 μg/ml): 16 µg/mL
MIC ATB combined with Example 3 @8 μg/ml (ABA UFR152; with Example 3 @8 μg/ml): 8 µg/mL
MIC ATB combined with Example 6 @8 μg/ml (ABA UFR152; with Example 6 @8 μg/ml): 16 µg/mL
MIC ATB combined with Example 9 @4 μg/ml (ABA UFR152; with Example 9 @4 μg/ml): 16 µg/mL
MIC ATB combined with Example 10 @8 μg/ml (ABA UFR152; with Example 10 @8 μg/ml): 8 µg/mL
MIC ATB combined with Example 11 @8 μg/ml (ABA UFR152; with Example 11 @8 μg/ml): 16 µg/mL
MIC ATB combined with Example 12 @8 μg/ml (ABA UFR152; with Example 12 @8 μg/ml): 8 µg/mL
MIC ATB combined with Example 15 @4 μg/ml (ABA UFR152; with Example 15 @4 μg/ml): 16 µg/mL
MIC (ABA UFR153; [1]): > 128 µg/mL
MIC ATB combined with Example 1 @8 μg/ml (ABA UFR153; with Example 1 @8 μg/ml): 16 µg/mL
MIC ATB combined with Example 3 @8 μg/ml (ABA UFR153; with Example 3 @8 μg/ml): 8 µg/mL
MIC ATB combined with Example 6 @8 μg/ml (ABA UFR153; with Example 6 @8 μg/ml): <=0.25 μg/mL
MIC ATB combined with Example 9 @4 μg/ml (ABA UFR153; with Example 9 @4 μg/ml): 16 µg/mL
MIC ATB combined with Example 10 @8 μg/ml (ABA UFR153; with Example 10 @8 μg/ml): 8 µg/mL
MIC ATB combined with Example 11 @8 μg/ml (ABA UFR153; with Example 11 @8 μg/ml): 16 µg/mL
MIC ATB combined with Example 12 @8 μg/ml (ABA UFR153; with Example 12 @8 μg/ml): 8 µg/mL
MIC ATB combined with Example 15 @4 μg/ml (ABA UFR153; with Example 15 @4 μg/ml): 16 µg/mL
MIC (ABA UFR156; [1]): > 128 µg/mL
MIC ATB combined with Example 1 @8 μg/ml (ABA UFR156; with Example 1 @8 μg/ml): 32 µg/mL
MIC ATB combined with Example 3 @8 μg/ml (ABA UFR156; with Example 3 @8 μg/ml): 8 µg/mL
MIC ATB combined with Example 6 @8 μg/ml (ABA UFR156; with Example 6 @8 μg/ml): 8 µg/mL
MIC ATB combined with Example 9 @4 μg/ml (ABA UFR156; with Example 9 @4 μg/ml): 32 µg/mL
MIC ATB combined with Example 10 @8 μg/ml (ABA UFR156; with Example 10 @8 μg/ml): 8 µg/mL
MIC ATB combined with Example 11 @8 μg/ml (ABA UFR156; with Example 11 @8 μg/ml): 32 µg/mL
MIC ATB combined with Example 12 @8 μg/ml (ABA UFR156; with Example 12 @8 μg/ml): 32 µg/mL
MIC ATB combined with Example 15 @4 μg/ml (ABA UFR156; with Example 15 @4 μg/ml): 32 µg/mL
MIC (ABA UFR157; [1]): 32 µg/mL
MIC ATB combined with Example 1 @8 μg/ml (ABA UFR157; with Example 1 @8 μg/ml): 8 µg/mL
MIC ATB combined with Example 3 @8 μg/ml (ABA UFR157; with Example 3 @8 μg/ml): 4 µg/mL
MIC ATB combined with Example 6 @8 μg/ml (ABA UFR157; with Example 6 @8 μg/ml): <0.25 µg/mL
MIC ATB combined with Example 9 @4 μg/ml (ABA UFR157; with Example 9 @4 μg/ml): 8 µg/mL
MIC ATB combined with Example 10 @8 μg/ml (ABA UFR157; with Example 10 @8 μg/ml): 8 µg/mL
MIC ATB combined with Example 11 @8 μg/ml (ABA UFR157; with Example 11 @8 μg/ml): 8 µg/mL
MIC ATB combined with Example 12 @8 μg/ml (ABA UFR157; with Example 12 @8 μg/ml): 4 µg/mL
MIC ATB combined with Example 15 @4 μg/ml (ABA UFR157; with Example 15 @4 μg/ml): 8 µg/mL
MIC (ABA UFR158; [1]): > 128 µg/mL
MIC ATB combined with Example 1 @8 μg/ml (ABA UFR158; with Example 1 @8 μg/ml): >128 µg/mL
MIC ATB combined with Example 3 @8 μg/ml (ABA UFR158; with Example 3 @8 μg/ml): >128 µg/mL
MIC ATB combined with Example 6 @8 μg/ml (ABA UFR158; with Example 6 @8 μg/ml): <0.25 µg/mL
MIC ATB combined with Example 9 @4 μg/ml (ABA UFR158; with Example 9 @4 μg/ml): >128 µg/mL
MIC ATB combined with Example 10 @8 μg/ml (ABA UFR158; with Example 10 @8 μg/ml): >128 µg/mL
MIC ATB combined with Example 11 @8 μg/ml (ABA UFR158; with Example 11 @8 μg/ml): >128 µg/mL
MIC ATB combined with Example 12 @8 μg/ml (ABA UFR158; with Example 12 @8 μg/ml): >128 µg/mL
MIC ATB combined with Example 15 @4 μg/ml (ABA UFR158; with Example 15 @4 μg/ml): >128 µg/mL
MIC (ABA UFR159; [1]): > 128 µg/mL
MIC ATB combined with Example 1 @8 μg/ml (ABA UFR159; with Example 1 @8 μg/ml): >128 µg/mL
MIC ATB combined with Example 3 @8 μg/ml (ABA UFR159; with Example 3 @8 μg/ml): >128 µg/mL
MIC ATB combined with Example 6 @8 μg/ml (ABA UFR159; with Example 6 @8 μg/ml): >128 µg/mL
MIC ATB combined with Example 9 @4 μg/ml (ABA UFR159; with Example 9 @4 μg/ml): >128 µg/mL
MIC ATB combined with Example 10 @8 μg/ml (ABA UFR159; with Example 10 @8 μg/ml): >128 µg/mL
MIC ATB combined with Example 11 @8 μg/ml (ABA UFR159; with Example 11 @8 μg/ml): >128 µg/mL
MIC ATB combined with Example 12 @8 μg/ml (ABA UFR159; with Example 12 @8 μg/ml): >128 µg/mL
MIC ATB combined with Example 15 @4 μg/ml (ABA UFR159; with Example 15 @4 μg/ml): >128 µg/mL
MIC (ABA UFR160; [1]): > 128 µg/mL
MIC ATB combined with Example 1 @8 μg/ml (ABA UFR160; with Example 1 @8 μg/ml): >128 µg/mL
MIC ATB combined with Example 3 @8 μg/ml (ABA UFR160; with Example 3 @8 μg/ml): >128 µg/mL
MIC ATB combined with Example 6 @8 μg/ml (ABA UFR160; with Example 6 @8 μg/ml): <0.25 µg/mL
MIC ATB combined with Example 9 @4 μg/ml (ABA UFR160; with Example 9 @4 μg/ml): >128 µg/mL
MIC ATB combined with Example 10 @8 μg/ml (ABA UFR160; with Example 10 @8 μg/ml): >128 µg/mL
MIC ATB combined with Example 11 @8 μg/ml (ABA UFR160; with Example 11 @8 μg/ml): >128 µg/mL
MIC ATB combined with Example 12 @8 μg/ml (ABA UFR160; with Example 12 @8 μg/ml): >128 µg/mL
MIC ATB combined with Example 15 @4 μg/ml (ABA UFR160; with Example 15 @4 μg/ml): >128 µg/mL
MIC (ABA UFR161; [1]): > 128 µg/mL
MIC ATB combined with Example 1 @8 μg/ml (ABA UFR161; with Example 1 @8 μg/ml): >128 µg/mL
MIC ATB combined with Example 3 @8 μg/ml (ABA UFR161; with Example 3 @8 μg/ml): >128 µg/mL
MIC ATB combined with Example 6 @8 μg/ml (ABA UFR161; with Example 6 @8 μg/ml): >128 µg/mL
MIC ATB combined with Example 9 @4 μg/ml (ABA UFR161; with Example 9 @4 μg/ml): >128 µg/mL
MIC ATB combined with Example 10 @8 μg/ml (ABA UFR161; with Example 10 @8 μg/ml): >128 µg/mL
MIC ATB combined with Example 11 @8 μg/ml (ABA UFR161; with Example 11 @8 μg/ml): >128 µg/mL
MIC ATB combined with Example 12 @8 μg/ml (ABA UFR161; with Example 12 @8 μg/ml): >128 µg/mL
MIC ATB combined with Example 15 @4 μg/ml (ABA UFR161; with Example 15 @4 μg/ml): >128 µg/mL

From US20200024278A1, “COMPOSITION COMPRISING ANTIBIOTIC COMPOUND AND AN HETEROCYCLIC COMPOUND AND THEIR USE IN PREVENTING OR TREATING BACTERIAL INFECTIONS” (MUTABILIS, priority 2016, published 2020)
